Where two headings read alike, the source gives them in different places.
Columns and labels:
Staphylococcus aureus = assay: standard microtiter assay, minimum inhibitory concentration; format: cell-based
Text: (§1) Representative results of standard microtiter assays are reported in Tables 1, 2 and 3 which follow, as the minimum inhibitory concentration of antibiotic (μg/ml).
(§2) In Table 1, test organisms 1-13 were different strains of Staphylococcus aureus, and 14-16 were different strains of Staphylococcus epidermidis. In Table 2, test organisms 1-5 were different strains of S. aureus; 6, 8, 12 and 14 were different strains of S. epidermidis; 7 was a Staphylococcus haemolyticus; 9 and 10 were different strains of Streptococcus faecalis; 11 was a Streptococcus pyogenes; and 13 was a Staphylococcus saprophyticus. In Table 3, test organisms 1-3 were different strains of S. aureus; 4 and 6 were different strains of S. epidermidis; 5 was a S. haemolyticus and 7 and 8 were different strains of Streptococcus faecalis. Except where individual components are indicated, the CWI-785 antibiotic employed was the CWI-785 complex; in some cases, HCl salts of the CWI-785 antibiotic were employed.
(§3) The number of strains tested is shown in parentheses below each organism. The average MIC is reported in μg/ml.
(§4) In Table 5 are shown data from standard microtiter assays carried out in a presence of no serum, 50% human serum (hum.) and 50% mouse serum (mse.). The test organisms were 1: S. aureus; 2,4 and 5: different strains of S. epidermidis; 3: S. haemolyticus; 6: S. saprophyticus; 7 and 8: different strains of S. faecalis.

Streptococcus faecalis = assay: as above; format: cell-based
Text: as §1, §2, §3, §4

[1] = test system: Staphylococcus epidermidis; assay: as above; format: cell-based; conditions: Staphylococcus epidermidis
Text: as §1, §2, §4

[2] = test system: Staphylococcus haemolyticus; assay: as above; format: cell-based; conditions: Staphylococcus haemolyticus
Text: as §1, §2, §4

[3] = test system: Staphylococcus saprophyticus; assay: as above; format: cell-based; conditions: Staphylococcus saprophyticus
Text: as §1, §2, §4

Streptococcus pyogenes = assay: as above; format: cell-based; conditions: Streptococcus pyogenes, read-out: minimum inhibitory concentration
Text: as §1, §2

Coag-neg. Staphylococci = assay: MIC against an expanded panel; format: cell-based; conditions: Table 4, Coag-neg. Staphylococci (24 strains)
Text: as §3

Group A Strep. = assay: MIC against an expanded panel; format: cell-based; conditions: Table 4, Group A Strep. (6 strains)
Text: as §3

Group B Strep. = assay: MIC against an expanded panel; format: cell-based; conditions: Table 4, Group B Strep. (4 strains)
Text: as §3

JK Diptheroids = assay: MIC against an expanded panel; format: cell-based; conditions: Table 4, JK Diptheroids (19 strains)
Text: as §3

Viridans = assay: MIC against an expanded panel; format: cell-based; conditions: Table 4, Viridans (2 strains)
Text: as §3

S. aureus = assay: mice infected intraperitoneally, dosed 1 hr after infection, ED50; format: in vivo; conditions: Staphylococcus aureus, 1 h, antibiotic i.v. 1 hr post infection
Experimental: The in vivo activity of the CWI-785 complex and its components and hydrolysis products was confirmed by administering selected CWI-785 antibiotics to mice infected with various gram-positive pathogens. In one representative assay, in which mice infected intraperitoneally with 46.8 LD50 's of S. aureus (strain 1, Tables 1 and 2) were dosed once, subcutaneously one hour after infection, the following ED50 's (mg/kg) were observed: CWI-785B: 2.4, CWI-785C: 3.1, CWI-785: 3.8, HPB3: 0.9, vancomycin: 0.7. In a second representative assay carried out as above except that mice were infected with 3.17 LD50 's of S. faecalis (strain 9, Table 2), the following ED50 's were observed: HPB3 hydrochloride: 1.6, HPB4 hydrochloride: 1.6, vancomycin: 2.2, teicoplanin: 1.3.
(§5) In Table 6, below, is shown the ED50 in mg/kg of HPB4 in comparison to vancomycin and teicoplanin. Mice were injected i.p. with the indicated organism and then i.v., 1 hr post infection, with the indicated antibiotic.

S. epidermidis = assay: mice infected i.p., antibiotic i.v. 1 hr post infection, ED50; format: in vivo; conditions: Staphylococcus epidermidis, 1 h
Experimental: as §5

S. haemolyticus = assay: as above; format: in vivo; conditions: Staphylococcus haemolyticus, 1 h
Experimental: as §5

STAPH. AUREUS HH 127 = assay: prophylactic activity, dosing preinfection; format: in vivo, mice; conditions: for ED50: Staphylococcus aureus, in Mus musculus

CN[C@H](CC(C)C)C(=O)N[C@H]1C(=O)N[C@@H](CC(N)=O)C(=O)N[C@H]2C(=O)N[C@H]3C(=O)N[C@H](C(=O)N[C@H](C(=O)O)c4cc(O)cc(O)c4-c4cc3ccc4O)[C@H](O)c3ccc(c(Cl)c3)Oc3cc2cc(c3O[C@@H]2O[C@H](CO)[C@@H](O)[C@H](O)[C@H]2O[C@H]2C[C@](C)(N)[C@H](O)[C@H](C)O2)Oc2ccc(cc2Cl)[C@H]1O [Vancomycin, vancomycin]
0.31 mg/kg: ED50 (STAPH. AUREUS HH 127; sc)
10 mg/kg: ED50 (S. haemolyticus)
1.6 µg/mL: MIC50 (Staphylococcus aureus; Staphylococcus aureus) | MIC (Staphylococcus aureus; Staphylococcus aureus, Table 5 organism 1 S. aureus, 50% Mse. Serum) | MIC (Staphylococcus aureus; Staphylococcus aureus, Table 5 organism 1 S. aureus, No Serum) | MIC (Staphylococcus aureus; Staphylococcus aureus, read-out: minimum inhibitory concentration, Table 1 test organism 1, S. aureus strain) | MIC (Staphylococcus aureus; Staphylococcus aureus, read-out: minimum inhibitory concentration, Table 1 test organism 2, S. aureus strain) | MIC (Staphylococcus aureus; Staphylococcus aureus, read-out: minimum inhibitory concentration, Table 1 test organism 3, S. aureus strain) | MIC (Staphylococcus aureus; Staphylococcus aureus, read-out: minimum inhibitory concentration, Table 1 test organism 4, S. aureus strain) | MIC (Staphylococcus aureus; Staphylococcus aureus, read-out: minimum inhibitory concentration, Table 1 test organism 5, S. aureus strain) | MIC (Staphylococcus aureus; Staphylococcus aureus, read-out: minimum inhibitory concentration, Table 1 test organism 6, S. aureus strain) | MIC (Staphylococcus aureus; Staphylococcus aureus, read-out: minimum inhibitory concentration, Table 1 test organism 8, S. aureus strain) | MIC (Staphylococcus aureus; Staphylococcus aureus, read-out: minimum inhibitory concentration, Table 1 test organism 9, S. aureus strain) | MIC (Staphylococcus aureus; Staphylococcus aureus, read-out: minimum inhibitory concentration, Table 1 test organism 10, S. aureus strain) | MIC (Staphylococcus aureus; Staphylococcus aureus, read-out: minimum inhibitory concentration, Table 1 test organism 11, S. aureus strain) | MIC (Staphylococcus aureus; Staphylococcus aureus, read-out: minimum inhibitory concentration, Table 1 test organism 12, S. aureus strain) | MIC (Staphylococcus aureus; Staphylococcus aureus, read-out: minimum inhibitory concentration, Table 2 test organism 1, S. aureus strain) | MIC (Staphylococcus aureus; Staphylococcus aureus, read-out: minimum inhibitory concentration, Table 2 test organism 2, S. aureus strain) | MIC (Staphylococcus aureus; Staphylococcus aureus, read-out: minimum inhibitory concentration, Table 2 test organism 3, S. aureus strain) | MIC (Staphylococcus aureus; Staphylococcus aureus, read-out: minimum inhibitory concentration, Table 2 test organism 4, S. aureus strain) | MIC (Staphylococcus aureus; Staphylococcus aureus, read-out: minimum inhibitory concentration, Table 2 test organism 5, S. aureus strain) | MIC (Streptococcus faecalis; Enterococcus faecalis, Table 5 organism 7 S. faecalis, No Serum) | MIC (Streptococcus faecalis; Enterococcus faecalis, Table 5 organism 8 S. faecalis, No Serum) | MIC (Streptococcus faecalis; Enterococcus faecalis, read-out: minimum inhibitory concentration, Table 2 test organism 9, Streptococcus faecalis strain) | MIC (Streptococcus faecalis; Enterococcus faecalis, read-out: minimum inhibitory concentration, Table 2 test organism 10, Streptococcus faecalis strain) | MIC ([1]; Table 5 organism 2 S. epidermidis, No Serum) | MIC ([1]; Table 5 organism 4 S. epidermidis, No Serum) | MIC ([1]; Table 5 organism 5 S. epidermidis, No Serum) | MIC ([1]; read-out: minimum inhibitory concentration, Table 1 test organism 14, S. epidermidis strain) | MIC ([1]; read-out: minimum inhibitory concentration, Table 1 test organism 16, S. epidermidis strain) | MIC ([1]; read-out: minimum inhibitory concentration, Table 2 test organism 6, S. epidermidis strain) | MIC ([1]; read-out: minimum inhibitory concentration, Table 2 test organism 8, S. epidermidis strain) | MIC ([1]; read-out: minimum inhibitory concentration, Table 2 test organism 12, S. epidermidis strain) | MIC ([1]; read-out: minimum inhibitory concentration, Table 2 test organism 14, S. epidermidis strain) | MIC ([3]; Table 5 organism 6 S. saprophyticus, No Serum) | MIC ([3]; read-out: minimum inhibitory concentration, Table 2 test organism 13, Staphylococcus saprophyticus) | MIC50 (JK Diptheroids; read-out: MIC50)
10%: PERCENT SURVIVAL (STAPH. AUREUS HH 127; Table 8: 40 mg/kg (I.V.), 6 hr preinfection)
20%: PERCENT SURVIVAL (STAPH. AUREUS HH 127; Table 7: 40 mg/kg, 4 hr preinfection, S.C.)
0.4 µg/mL: MIC50 (Streptococcus faecalis; Enterococcus faecalis) | MIC50 (Group A Strep.; read-out: MIC50)
3.1 µg/mL: MIC (Staphylococcus aureus; Staphylococcus aureus, Table 5 organism 1 S. aureus, 50% Hum. Serum) | MIC (Staphylococcus aureus; Staphylococcus aureus, read-out: minimum inhibitory concentration, Table 1 test organism 7, S. aureus strain) | MIC (Streptococcus faecalis; Enterococcus faecalis, Table 5 organism 7 S. faecalis, 50% Hum. Serum) | MIC (Streptococcus faecalis; Enterococcus faecalis, Table 5 organism 8 S. faecalis, 50% Hum. Serum) | MIC ([1]; Table 5 organism 2 S. epidermidis, 50% Hum. Serum) | MIC ([1]; Table 5 organism 2 S. epidermidis, 50% Mse. Serum) | MIC ([1]; Table 5 organism 4 S. epidermidis, 50% Hum. Serum) | MIC ([1]; Table 5 organism 4 S. epidermidis, 50% Mse. Serum) | MIC ([1]; Table 5 organism 5 S. epidermidis, 50% Mse. Serum) | MIC ([1]; read-out: minimum inhibitory concentration, Table 1 test organism 15, S. epidermidis strain) | MIC ([2]; Table 5 organism 3 S. haemolyticus, 50% Hum. Serum) | MIC ([2]; Table 5 organism 3 S. haemolyticus, No Serum) | MIC ([2]; read-out: minimum inhibitory concentration, Table 2 test organism 7, Staphylococcus haemolyticus) | MIC ([3]; Table 5 organism 6 S. saprophyticus, 50% Hum. Serum) | MIC50 (Coag-neg. Staphylococci; read-out: MIC50)
0.4 mg/kg: ED50 (S. aureus; S. aureus HH 127 (35 × LD50) i.p.)
0.8 to 1.6 µg/mL: MIC RANGE (JK Diptheroids)
0.05 to 0.8 µg/mL: MIC RANGE (Viridans)
50 µg/mL: MBC (Streptococcus faecalis; Enterococcus faecalis, read-out: MBC50)
≤ 0.1 µg/mL: MIC ([1]; Table 5 organism 5 S. epidermidis, 50% Hum. Serum)
0.156 mg/kg: ED50 (STAPH. AUREUS HH 127; iv)
0.8 µg/mL: MIC (Staphylococcus aureus; Staphylococcus aureus, read-out: minimum inhibitory concentration, Table 1 test organism 13, S. aureus strain) | MIC (Streptococcus pyogenes)
1.4 mg/kg: ED50 (S. aureus; S. aureus 2620 (24 × LD50) i.p.)
0.4 to 0.8 µg/mL: MIC RANGE (Streptococcus faecalis; Table 4, Strep. faecalis (12 strains)) | MIC RANGE (Group B Strep.)
0.4 to 6.3 µg/mL: MIC RANGE (Coag-neg. Staphylococci)
0.04 to 0.8 µg/mL: MIC RANGE (Group A Strep.)
6.3 µg/mL: MIC (Streptococcus faecalis; Enterococcus faecalis, Table 5 organism 7 S. faecalis, 50% Mse. Serum) | MIC (Streptococcus faecalis; Enterococcus faecalis, Table 5 organism 8 S. faecalis, 50% Mse. Serum) | MIC ([2]; Table 5 organism 3 S. haemolyticus, 50% Mse. Serum) | MIC ([3]; Table 5 organism 6 S. saprophyticus, 50% Mse. Serum)
< 1.25 mg/kg: ED50 (S. epidermidis)
1.6 to 6.3 µg/mL: MIC RANGE (Staphylococcus aureus; Table 4, S. aureus (30 strains))

— patent US4742045A, “Glycopeptide antibiotics” (SmithKline Beckman Corporation, priority 1986, dated 1988)
